Results reported in patent publication US11492385B2, “Long-acting co-agonists of the glucagon and GLP-1 receptors” (Merck Sharp & Dohme Corp., priority 2015, dated 2022).
Starred links: 1 amine or outer side, 2 acyl side, 3 side chain; linkers in the order of their positions; H or OH if unused. Non-standard residues stand in square brackets, D forms with d. Residues, ends and D or L forms follow the SMILES beside them. Groups on a side chain read outwards from the residue. *: point of attachment. Phe(4-CH2NH2) = NCc1ccc(C[C@H](N)C(=O)O)cc1; C19 diacid = O=C(O)CCCCCCCCCCCCCCCCCC(=O)*; C18 diacid = O=C(O)CCCCCCCCCCCCCCCCC(=O)*; C17 diacid = O=C(O)CCCCCCCCCCCCCCCC(=O)*; C16 diacid = O=C(O)CCCCCCCCCCCCCCC(=O)*; γGlu = O=C(O)[C@H](CCC(=O)[*:2])N[*:1]; Met(O2) = CS(=O)(=O)CC[C@H](N)C(=O)O; αMeD = C[C@](N)(CC(=O)O)C(=O)O; AEEA = NCCOCCOCC(=O)O; Aib = CC(C)(N)C(=O)O

Assays:
human GLP1R = molecular target: T1, human GLP1R (Homo sapiens, UniProt P43220); assay: cAMP activity assay, cells expressing human GLP1R; type: cell-based; settings: cAMP production, assay buffer with or without 20% human serum (not stated which)
T1 construct: expressed in transfected cells; kept under Blasticidin and Hygromycin selection
Procedure, shortened: (§1)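 Peptides as 10-point titrations from DMSO tested on cells expressing human GLP1R or GCGR. cAMP measured by luminescent kit after overnight room-temperature incubation in the dark. EC50 from four-parameter logistic fit; native GLP-1 and glucagon as controls.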

human GCGR = molecular target: T2, human GCGR (Homo sapiens, UniProt P47871); assay: cAMP activity assay, cells expressing human GCGR; type: cell-based; settings: for EC50: cAMP production, cells expressing human GCGR, assay buffer with or without 20% human serum (not stated which), read-out: GCGR EC50 human; for hGCGR/hGLP1R (hTone): ratio of human GCGR EC50 to human GLP1R EC50
T2 construct: expressed in transfected cells; kept under Blasticidin and Hygromycin selection
Procedure, shortened: as §1

T1 sequence (P43220 24-463): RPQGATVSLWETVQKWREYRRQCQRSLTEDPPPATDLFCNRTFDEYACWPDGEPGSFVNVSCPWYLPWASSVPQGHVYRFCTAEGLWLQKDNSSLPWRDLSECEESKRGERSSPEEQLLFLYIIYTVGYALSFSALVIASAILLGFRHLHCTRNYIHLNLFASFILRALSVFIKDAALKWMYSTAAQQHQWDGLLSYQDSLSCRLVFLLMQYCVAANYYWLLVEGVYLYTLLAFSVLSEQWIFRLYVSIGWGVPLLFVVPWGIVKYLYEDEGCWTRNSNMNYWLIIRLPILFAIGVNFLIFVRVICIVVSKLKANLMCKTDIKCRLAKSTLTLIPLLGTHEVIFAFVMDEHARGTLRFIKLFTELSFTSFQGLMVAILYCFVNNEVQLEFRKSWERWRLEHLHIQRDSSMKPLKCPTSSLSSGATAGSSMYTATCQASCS
T2 sequence (P47871 26-477): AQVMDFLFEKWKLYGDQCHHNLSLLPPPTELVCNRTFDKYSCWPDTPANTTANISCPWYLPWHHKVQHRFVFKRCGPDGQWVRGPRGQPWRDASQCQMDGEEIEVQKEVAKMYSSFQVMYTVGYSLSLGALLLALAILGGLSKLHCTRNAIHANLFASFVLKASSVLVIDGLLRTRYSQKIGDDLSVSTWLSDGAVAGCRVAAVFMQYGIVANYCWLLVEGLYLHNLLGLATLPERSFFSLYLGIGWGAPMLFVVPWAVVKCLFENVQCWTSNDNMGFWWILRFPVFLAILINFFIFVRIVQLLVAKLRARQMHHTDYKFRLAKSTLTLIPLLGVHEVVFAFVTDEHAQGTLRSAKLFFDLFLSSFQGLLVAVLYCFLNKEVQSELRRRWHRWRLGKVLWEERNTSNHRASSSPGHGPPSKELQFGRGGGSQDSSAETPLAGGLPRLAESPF

Row | SMILES | EC50 (human GLP1R) | EC50 (human GCGR) | hGCGR/hGLP1R (hTone) (human GCGR)
1 | CC(C)C[C@H](NC(=O)[C@H](Cc1ccc(O)cc1)NC(=O)[C@H](CCCCN)NC(=O)[C@H](CO)NC(=O)[C@H](Cc1ccc(CNC(=O)COCCOCCNC(=O)COCCOCCNC(=O)CC[C@H](NC(=O)CCCCCCCCCCCCCCCCC(=O)O)C(=O)O)cc1)NC(=O)[C@H](CC(=O)O)NC(=O)[C@H](CO)NC(=O)[C@@H](NC(=O)[C@H](Cc1ccccc1)NC(=O)[C@@H](NC(=O)CNC(=O)[C@H](CCC(N)=O)NC(=O)C(C)(C)NC(=O)[C@@H](N)Cc1c[nH]cn1)[C@@H](C)O)[C@@H](C)O)C(=O)N[C@@H](CC(=O)O)C(=O)N[C@@H](C)C(=O)N[C@@H](CCCNC(=N)N)C(=O)N[C@@H](C)C(=O)N[C@@H](C)C(=O)N[C@@H](CCC(N)=O)C(=O)N[C@@H](CC(=O)O)C(=O)N[C@@H](Cc1ccccc1)C(=O)N[C@H](C(=O)N[C@@H](CCC(N)=O)C(=O)N[C@@H](Cc1c[nH]c2ccccc12)C(=O)N[C@@H](CC(C)C)C(=O)N[C@@H](CCS(C)(=O)=O)C(=O)N[C@@H](CC(=O)O)C(=O)N[C@H](C(N)=O)[C@@H](C)O)C(C)C [compound 28] (H-H[Aib]QGTFTSD[Phe(4-CH2NH2)]([AEEA-AEEA-γGlu-C18 diacid])SKYLDARAAQDFVQWL[Met(O2)]DT-NH2) | 0.14 nM | 0.43 nM | 3.11
2 | CC(C)C[C@H](NC(=O)[C@H](Cc1ccc(O)cc1)NC(=O)[C@H](CCCCN)NC(=O)[C@H](CO)NC(=O)[C@H](Cc1ccc(O)cc1)NC(=O)[C@H](CC(=O)O)NC(=O)[C@H](CO)NC(=O)[C@@H](NC(=O)[C@H](Cc1ccccc1)NC(=O)[C@@H](NC(=O)CNC(=O)[C@H](CCC(N)=O)NC(=O)C(C)(C)NC(=O)[C@@H](N)Cc1c[nH]cn1)[C@@H](C)O)[C@@H](C)O)C(=O)N[C@@H](CC(=O)O)C(=O)N[C@@H](C)C(=O)N[C@@H](CCCNC(=N)N)C(=O)N[C@@H](C)C(=O)N[C@@H](C)C(=O)N[C@@H](CCCCNC(=O)COCCOCCNC(=O)COCCOCCNC(=O)CC[C@H](NC(=O)CCCCCCCCCCCCCCC(=O)O)C(=O)O)C(=O)N[C@@H](CC(=O)O)C(=O)N[C@@H](Cc1ccccc1)C(=O)N[C@H](C(=O)N[C@@H](CCC(N)=O)C(=O)N[C@@H](Cc1c[nH]c2ccccc12)C(=O)N[C@@H](CC(C)C)C(=O)N[C@@H](CCS(C)(=O)=O)C(=O)N[C@@](C)(CC(=O)O)C(=O)N[C@H](C(N)=O)[C@@H](C)O)C(C)C [compound 41] (H-H[Aib]QGTFTSDYSKYLDARAAK([AEEA-AEEA-γGlu-C16 diacid])DFVQWL[Met(O2)][αMeD]T-NH2) | 0.02 nM | 0.05 nM | 3.13
3 | CC(C)C[C@H](NC(=O)[C@H](CC(C)C)NC(=O)[C@H](Cc1c[nH]c2ccccc12)NC(=O)[C@H](CCC(N)=O)NC(=O)[C@@H](NC(=O)[C@H](Cc1ccccc1)NC(=O)[C@H](CCCCNC(=O)COCCOCCNC(=O)COCCOCCNC(=O)CC[C@H](NC(=O)CCCCCCCCCCCCCCC(=O)O)C(=O)O)NC(=O)[C@H](CCC(N)=O)NC(=O)[C@H](C)NC(=O)[C@H](C)NC(=O)[C@H](CCCNC(=N)N)NC(=O)C(C)(C)NC(=O)[C@H](CC(=O)O)NC(=O)[C@H](CC(C)C)NC(=O)[C@H](Cc1ccc(O)cc1)NC(=O)[C@H](CCCCN)NC(=O)[C@H](CO)NC(=O)[C@H](Cc1ccc(O)cc1)NC(=O)[C@H](CC(=O)O)NC(=O)[C@H](CO)NC(=O)[C@@H](NC(=O)[C@H](Cc1ccccc1)NC(=O)[C@@H](NC(=O)CNC(=O)[C@H](CCC(N)=O)NC(=O)[C@@H](CO)NC(=O)[C@@H](N)Cc1c[nH]cn1)[C@@H](C)O)[C@@H](C)O)C(C)C)C(=O)N[C@@H](C)C(=O)N[C@H](C(=O)N[C@@H](CCCCNC(=O)CC[C@H](N)C(=O)O)C(N)=O)[C@@H](C)O [compound 1] (H-H[dS]QGTFTSDYSKYLD[Aib]RAAQK([AEEA-AEEA-γGlu-C16 diacid])FVQWLLATK(γGlu)-NH2) | 1.89 nM | 0.16 nM | 0.09
4 | CC(C)C[C@H](NC(=O)[C@H](Cc1ccc(O)cc1)NC(=O)[C@H](CCCCN)NC(=O)[C@H](CO)NC(=O)[C@H](Cc1ccc(O)cc1)NC(=O)[C@H](CC(=O)O)NC(=O)[C@H](CO)NC(=O)[C@@H](NC(=O)[C@H](Cc1ccccc1)NC(=O)[C@@H](NC(=O)CNC(=O)[C@H](CCC(N)=O)NC(=O)C(C)(C)NC(=O)[C@@H](N)Cc1c[nH]cn1)[C@@H](C)O)[C@@H](C)O)C(=O)N[C@@H](CC(=O)O)C(=O)N[C@@H](C)C(=O)N[C@@H](CCCNC(=N)N)C(=O)N[C@@H](C)C(=O)N[C@@H](C)C(=O)N[C@@H](CCC(N)=O)C(=O)N[C@@H](CCCCNC(=O)COCCOCCNC(=O)COCCOCCNC(=O)CC[C@H](NC(=O)CCCCCCCCCCCCCCCC(=O)O)C(=O)O)C(=O)N[C@@H](Cc1ccccc1)C(=O)N[C@H](C(=O)N[C@@H](CCC(N)=O)C(=O)N[C@@H](Cc1c[nH]c2ccccc12)C(=O)N[C@@H](CC(C)C)C(=O)N[C@@H](CCS(C)(=O)=O)C(=O)N[C@@H](CC(=O)O)C(=O)N[C@H](C(N)=O)[C@@H](C)O)C(C)C [compound 48] (H-H[Aib]QGTFTSDYSKYLDARAAQK([AEEA-AEEA-γGlu-C17 diacid])FVQWL[Met(O2)]DT-NH2) | 0.05 nM | 0.05 nM | 1.10

Results, then the compound that gave them:

Row | EC50 (human GLP1R) | EC50 (human GCGR) | hGCGR/hGLP1R (hTone) (human GCGR) | SMILES
5 | 0.274 nM | 0.03 nM | 0.11 | CC(C)C[C@H](NC(=O)[C@H](Cc1ccc(O)cc1)NC(=O)[C@H](CCCCN)NC(=O)[C@H](CO)NC(=O)[C@H](Cc1ccc(O)cc1)NC(=O)[C@H](CC(=O)O)NC(=O)[C@H](CO)NC(=O)[C@@H](NC(=O)[C@H](Cc1ccccc1)NC(=O)[C@@H](NC(=O)CNC(=O)[C@H](CCC(N)=O)NC(=O)[C@@H](CO)NC(=O)[C@@H](N)Cc1c[nH]cn1)[C@@H](C)O)[C@@H](C)O)C(=O)N[C@@H](CC(=O)O)C(=O)N[C@@H](C)C(=O)N[C@@H](CCCNC(=N)N)C(=O)N[C@@H](C)C(=O)N[C@@H](C)C(=O)N[C@@H](CCCCNC(=O)COCCOCCNC(=O)COCCOCCNC(=O)CC[C@H](NC(=O)CCCCCCCCCCCCCCC(=O)O)C(=O)O)C(=O)N[C@@H](CC(=O)O)C(=O)N[C@@H](Cc1ccccc1)C(=O)N[C@H](C(=O)N[C@@H](CCC(N)=O)C(=O)N[C@@H](Cc1c[nH]c2ccccc12)C(=O)N[C@@H](CC(C)C)C(=O)N[C@@H](CC(C)C)C(=O)N[C@@H](CC(=O)O)C(=O)N[C@H](C(N)=O)[C@@H](C)O)C(C)C [compound 2] (H-H[dS]QGTFTSDYSKYLDARAAK([AEEA-AEEA-γGlu-C16 diacid])DFVQWLLDT-NH2; N-terminus assumed)
6 | 0.29 nM | 0.02 nM | 0.08 | CC(C)C[C@H](NC(=O)[C@H](Cc1ccc(O)cc1)NC(=O)[C@H](CCCCN)NC(=O)[C@H](CO)NC(=O)[C@H](Cc1ccc(O)cc1)NC(=O)[C@H](CC(=O)O)NC(=O)[C@H](CO)NC(=O)[C@@H](NC(=O)[C@H](Cc1ccccc1)NC(=O)[C@@H](NC(=O)CNC(=O)[C@H](CCC(N)=O)NC(=O)[C@@H](CO)NC(=O)[C@@H](N)Cc1c[nH]cn1)[C@@H](C)O)[C@@H](C)O)C(=O)N[C@@H](CC(=O)O)C(=O)N[C@@H](C)C(=O)N[C@@H](CCCNC(=N)N)C(=O)N[C@@H](C)C(=O)N[C@@H](C)C(=O)N[C@@H](Cc1ccc(CNC(=O)COCCOCCNC(=O)COCCOCCNC(=O)CC[C@H](NC(=O)CCCCCCCCCCCCCCC(=O)O)C(=O)O)cc1)C(=O)N[C@@H](CC(=O)O)C(=O)N[C@@H](Cc1ccccc1)C(=O)N[C@H](C(=O)N[C@@H](CCC(N)=O)C(=O)N[C@@H](Cc1c[nH]c2ccccc12)C(=O)N[C@@H](CC(C)C)C(=O)N[C@@H](CC(C)C)C(=O)N[C@@H](CC(=O)O)C(=O)N[C@H](C(N)=O)[C@@H](C)O)C(C)C [compound 22] (H-H[dS]QGTFTSDYSKYLDARAA[Phe(4-CH2NH2)]([AEEA-AEEA-γGlu-C16 diacid])DFVQWLLDT-NH2)
7 | 0.67 nM | 1.98 nM | 3.22 | CC(C)C[C@H](NC(=O)[C@H](Cc1ccc(O)cc1)NC(=O)[C@H](CCCCN)NC(=O)[C@H](CO)NC(=O)[C@H](CCCCNC(=O)CC[C@H](NC(=O)CC[C@H](NC(=O)CCCCCCCCCCCCCCC(=O)O)C(=O)O)C(=O)O)NC(=O)[C@H](CC(=O)O)NC(=O)[C@H](CO)NC(=O)[C@@H](NC(=O)[C@H](Cc1ccccc1)NC(=O)[C@@H](NC(=O)CNC(=O)[C@H](CCC(N)=O)NC(=O)[C@@H](CO)NC(=O)[C@@H](N)Cc1c[nH]cn1)[C@@H](C)O)[C@@H](C)O)C(=O)N[C@@H](CC(=O)O)C(=O)N[C@@H](CCC(=O)O)C(=O)N[C@@H](CCCNC(=N)N)C(=O)N[C@@H](C)C(=O)N[C@@H](C)C(=O)N[C@@H](CCC(N)=O)C(=O)N[C@@H](CC(=O)O)C(=O)N[C@@H](Cc1ccccc1)C(=O)N[C@H](C(=O)N[C@@H](CCC(N)=O)C(=O)N[C@@H](Cc1c[nH]c2ccccc12)C(=O)N[C@@H](CC(C)C)C(=O)N[C@@H](CC(C)C)C(=O)N[C@@H](CCCCN)C(=O)N[C@H](C(N)=O)[C@@H](C)O)C(C)C [compound 9]
8 | 0.28 nM | 0.5 nM | 1.83 | CC(C)C[C@H](NC(=O)[C@H](Cc1ccc(O)cc1)NC(=O)[C@H](CCCCN)NC(=O)[C@H](CO)NC(=O)[C@H](Cc1ccc(O)cc1)NC(=O)[C@H](CC(=O)O)NC(=O)[C@H](CO)NC(=O)[C@@H](NC(=O)[C@H](Cc1ccccc1)NC(=O)[C@@H](NC(=O)CNC(=O)[C@H](CCC(N)=O)NC(=O)C(C)(C)NC(=O)[C@@H](N)Cc1c[nH]cn1)[C@@H](C)O)[C@@H](C)O)C(=O)N[C@@H](CC(=O)O)C(=O)N[C@@H](C)C(=O)N[C@@H](CCCNC(=N)N)C(=O)N[C@@H](C)C(=O)N[C@@H](C)C(=O)N[C@@H](CCC(N)=O)C(=O)N[C@@H](CCCCNC(=O)COCCOCCNC(=O)COCCOCCNC(=O)CC[C@H](NC(=O)CCCCCCCCCCCCCCCCCC(=O)O)C(=O)O)C(=O)N[C@@H](Cc1ccccc1)C(=O)N[C@H](C(=O)N[C@@H](CCC(N)=O)C(=O)N[C@@H](Cc1c[nH]c2ccccc12)C(=O)N[C@@H](CC(C)C)C(=O)N[C@@H](CCS(C)(=O)=O)C(=O)N[C@@H](CC(=O)O)C(=O)N[C@H](C(N)=O)[C@@H](C)O)C(C)C [compound 46] (H-H[Aib]QGTFTSDYSKYLDARAAQK([AEEA-AEEA-γGlu-C19 diacid])FVQWL[Met(O2)]DT-NH2; N-terminus assumed)
